Entries after “also recorded” stand apart in the source; their conditions may differ.
Legend:
injured nerve fibers = details: in vivo; cited from earlier work
Ih conductance = details: cited from earlier work
ION-CCI rats [1] = assay: Mechanical allodynia, air-puff threshold head withdrawal test; type: in vivo, rat
Method: (§1) All surgical and experimental procedures were reviewed and approved by the Institutional Animal Care and Use Committee at the School of Dentistry, Seoul National University. Animal treatments were performed in strict accordance with the ethical guidelines of the International Association for the Study of Pain for the investigations of experimental pain in conscious animals [Zimmermann, M., Pain, 1983, 16: 109-110], and the National Institute of Health Guide for the Care and Use of Laboratory Animals. Behavioral tests were carried out on male Sprague Dawley rats (OrientBio, Sungnam, Korea) weighing 200-250 g. The rats were maintained in a temperature-controlled room with a 12/12-h light/dark cycle and fed food and water ad libitum. The animals were allowed to habituate to the housing facilities for 1 week before the experiments.
(§2) Surgical procedures were performed under 0.5 mL/kg (i.m.) of a mixture of equal volumes of ketamine (100 mg/mL) and xylazine (20 mg/mL) anesthesia. Under anesthesia, a chronic constriction injury of the infraorbital nerve (ION-CCI) was performed from the original description of Imamura et al. [Imamura, Y. et al., Exp. Brain Res., 1997, 116: 97-103]. A 1-cm-long incision was made along the gingivobuccal margin. The incision was begun proximal to the first molar. Approximately 0.5 cm of the ION was separated from the adhering tissue, and 2 ligatures (5-0 chromic gut) were tied loosely around it. The incision was sutured at 3 points with 4-0 silk. The sham operation was performed without ligation of the infraorbital nerve.
On postoperative 7 day, ION-CCI rats were placed in customized observation cages that were then placed in a darkened and noise-free room to conduct behavioral observations. The animals were acclimated for at least 30 min. Mechanical allodynia was determined as previously described [Ahn, D. K. et al., Pain, 2009, 146: 114-120], by observing withdrawal behavior, produced by 10 successive trials of constant air-puff pressure (4-s duration, 10-s intervals) in freely moving rats. The intensity and intervals of the air-puff pressure were controlled with a pneumatic pump module (BH2 system, Harvard Apparatus, Holliston, Mass.). The air puffs were applied through a 26-gauge metal tube (length, 10 cm) located 1 cm from the skin at a 90° angle. Thresholds were determined through the air-puff pressure at which each rat withdrew its head in 50% of the trials. The cutoff pressure for the air puffs was 40 psi. […] After eugenol (1 μg/30 μL, 5 μg/30 μL or 10 μg/30 μL; 200 μM, 1 mM, or 2 mM, respectively) was administered subcutaneously into the vibrissa pad, air-puff thresholds were determined at 15 and 30 min, and at 1, 2, 3, 4, 5, 6, and 24 hr after eugenol injection. In the control group, 30 μL of the vehicle (30% DMSO/saline) was injected subcutaneously.

TG neurons = assay: Current-clamp action potential firing in TG neurons; type: cell-based, rat; details: 200 μM
Method: TG neurons from 2- to 7-day-old neonatal rats or adult rats (200 to 300 g) were prepared as previously described [Fang, Z. et al., J. Biol. Chem., 2007, 282: 4757-4764]. Briefly, TG neurons prepared in 4° C. Hanks balanced salt solution (Welgene, Daegu, Korea) were incubated in 2 mL Hanks balanced salt solution containing 0.167% trypsin (Invitrogen, Carlsbad, Calif.) at 37° C. for 40 min. The cells were washed in DMEM and triturated with a flame-polished Pasteur pipette to separate cells and remove processes, and subsequently centrifuged (750 RPM, 5 min), resuspended and placed on 0.5 mg/mL poly-L-ornithine (Sigma, St. Louis, Mo.)-coated glass coverslips (12 mm in diameter). The cells were maintained at 37° C. in a […]/5% CO2 incubator.
Whole-cell recordings were made using patch electrodes (4 to 6 MΩ) pulled from borosilicate glass on a Brown-Flaming P-97 horizontal micropipette puller (Sutter Instruments, Novato, Calif.). Voltage- and current-clamp experiments were performed using an HEKA EPC9 amplifier and digitized using ITC16 and Pulse v8.54 software (both from HEKA, Lambrecht/Pfalz, Germany). […] Data were analyzed by Origin 6.0 software. […]
Ih was elicited by a 2 s pulse from a holding potential of −50 mV to −120 mV in 10 mV steps. […] The reversal potential of the eugenol-sensitive currents was determined by measuring the tail currents. […]

ION-CCI rats [2] = details: >50 μg; cited from earlier work
[3] = tested on: hyperpolarization-activated current (Ih) in TG neurons (HCN channels); assay: Whole-cell recordings of Ih in TG neurons; type: cell-based, rat
[4] = tested on: voltage-gated sodium channels (VGSCs); details: conventional concentration, equals 50 μg; cited from earlier work
[5] = tested on: voltage-gated sodium channels (VGSCs); assay: VGSC currents in TG neurons in normal bath solution; type: cell-based, rat; details: 200 μM, n=3
Method: (B) The left figure represents the comparison of action potentials at an expanded time scale before and after exposure to eugenol (200 μM), and the Right figure represents a summary of the dV/dt analysis. (C) The left figure represents superimposed current traces before and during exposure to eugenol (200 μM) in the normal bath solution where inward currents result from VGSCs, and the right figure represents a summary of eugenol-induced VGSC currents inhibition (n=3).
Whole-cell recordings were made using patch electrodes (4 to 6 MΩ) pulled from borosilicate glass on a Brown-Flaming P-97 horizontal micropipette puller (Sutter Instruments, Novato, Calif.). Voltage- and current-clamp experiments were performed using an HEKA EPC9 amplifier and digitized using ITC16 and Pulse v8.54 software (both from HEKA, Lambrecht/Pfalz, Germany). Signals were filtered at 1 kHz and sampled at 3 kHz. Series resistance was typically less than 20 MΩ and was compensated by about 70 to 80%. Electrical recordings were performed at room temperature. The 3 M KCl agar bridge (Warner Instruments, Hamden, Conn.) is used to avoid high liquid junction potentials. Data were analyzed by Origin 6.0 software.
Extracellular solution containing 140 mM NaCl, 2 mM CaCl2, 1 mM MgCl2, 5 mM KCl, 10 mM HEPES, 10 mM D-glucose was adjusted to pH 7.4 with NaOH, 290 to 310 mOsm. […]

ION-CCI rats [6] = assay: Thermal hyperalgesia, head withdrawal latency to radiant heat; type: in vivo, rat
Method: as §1, §2
Thermal hyperalgesia was also determined as previously described [Ahn, D. K. et al., Pain, 2009, 146: 114-120; Park, C. K. et al., Pain, 2009, 144: 84-94]. Each rat was placed in a customized cylinder-type acrylic rodent restrainer (height 40 to 60 mm, length 70 to 120 mm). […] Each restrainer was placed in a darkened and noise-free room, and the animals were habituated for at least 30 min before the start of the experiment. After radiant heat was applied to the midregion of the left vibrissa pad, the head withdrawal latency was determined. The application of heat stimuli was performed using an infrared thermal stimulator (Infrared Diode Laser, LVI-808-10, LVI tech, Seoul, Korea). The power and current of the thermal stimulator were adjusted to 11 W and 18.1 A, respectively. The thermal stimuli produced stable withdrawal latencies of approximately 11 s for a 10-cm distance from the heat source to the vibrissa pad. […] After eugenol (10 μg/30 μL or 50 μg/30 μL; 2 mM or 10 mM, respectively) was administered subcutaneously into the vibrissa pad, the latencies of withdrawal responses were determined at 10, 20, 30, 40, 50, and 60 min and 24 h after eugenol injection. […]

[7] = concentration lower than that which would inhibit VGSCs (50 μg; 10 mM)

CCN(c1ccccc1)c1cc(=NC)n(C)c(C)n1.Cl [ZD7288]
pain behavior (injured nerve fibers): reversed | spontaneous discharges in injured nerve fibers (injured nerve fibers): reversed | action potential duration (Ih conductance): prolonged | repetitive firing during tetanic bursts (Ih conductance): diminished

C=CCc1ccc(O)c(OC)c1 [eugenol, 4-allyl-2-methoxyphenol]
air-puff thresholds (ION-CCI rats [1]; 1 μg subcutaneous into vibrissa pad, 7 day ION-CCI): significantly enhanced | air-puff threshold (ION-CCI rats [1]; 5 to 10 μg subcutaneous, cutoff 40 psi): reached the cutoff | onset of effect (ION-CCI rats [1]; FIG. 7B): occurred immediately | effect on mechanical allodynia (ION-CCI rats [1]; [7]): ameliorating effect | antiallodynic effects on mechanical allodynia (ION-CCI rats [1]; subcutaneous 1 μg, 5 μg, 10 μg, n=6 per group, p<0.05): significantly produced prolonged the antiallodynic effects | dV/dt of action potential (TG neurons): not changed | firing rates of action potentials (TG neurons; 50 pA depolarizing current injection, n=4): reduced | thermal pain / thermal hyperalgesia, previous study (ION-CCI rats [2]): blocks thermal pain in a dose-dependent manner; also recorded: ameliorated thermal hyperalgesia | eugenol-induced Ih inhibition with 8-Br-cAMP ([3]; 200 μM eugenol, 8-Br-cAMP (100 μM) in pipette solution, n=6): 17.5±3.7% | eugenol-induced Ih inhibition with Rp-cAMPs ([3]; 200 μM eugenol, Rp-cAMPs (100 μM), n=6): 25.7±3.4% | eugenol-induced Ih inhibition with Sp-cAMPS ([3]; 200 μM eugenol, Sp-cAMPs (100 μM), n=5): 20.1±3.1% | Ih inhibition after pretreatment with NEM ([3]; 200 μM eugenol, TG neurons pretreated 5 min with NEM (50 μM), n=8): 69.2±4.4% | Ih inhibition ([3]; 200 μM, TG neurons of adult (naive) rats, n=11): 73.0±3.9% | Ih inhibition ([3]; 200 μM, TG neurons of neonatal rats, n=27): 63.3±1.6% | Ih inhibition ([3]; 200 μM, injured DiI-labeled TG neurons of ION-CCI rats, n=7): 67.5±4.0% | reversibility of Ih inhibition ([3]; 200 μM, sequential application, FIG. 2A): reversible and repetitively reproduced | maximal Ih amplitude ([3]; 200 μM, step pulses −50 to −120 mV, full range of voltages): reduced | Eugenol-induced Ih inhibition ([3]; 200 μM, without NEM, n=8, FIG. 6A): 66.1±1.8% | Ih block ([3]; 500 μM and 1 mM, FIG. 3): complete Ih block | mean Vrev (reversal potential of Ih) ([3]; after application of 200 μM eugenol, n=4, control −29.4±2.3 mV): −25.8±1.4 mV | IC50 ([3]; read-out: IC50 of Ih inhibition, TG neurons, dose dependent, FIG. 3): 157 µM | concentration at which eugenol inhibits VGSCs [4]: 10 mM | VGSC currents [5]: not affected | thermal hyperalgesia / thermal hypersensitivity (ION-CCI rats [6]; 50 μg subcutaneous, n=6, p<0.05): significantly reduced; also recorded: significantly inhibited | thermal hyperalgesia (ION-CCI rats [6]; <10 μg): not effective | effect on thermal hyperalgesia (ION-CCI rats [6]; [7]): no effect | thermal hypersensitivity (ION-CCI rats [6]; low dose 10 μg subcutaneous, n=6): no effect

From patent US20130150455A1, “METHOD FOR TREATING MECHANICAL ALLODYNIA COMPRISING ADMINISTRATION OF EUGENOL” (SNU R&DB FOUNDATION, priority 2011, published 2013)
